Results published in patent publication US20240148744A1 (Celgene Corporation, priority 2021, published 2024).

Assays:
[1] = system: Adult and microfilariae B. malayi; assay: In vitro parasite motility assay, B. malayi adult worms and microfilariae; type: cell-based; settings: Brugia malayi, read-out: B. malayi Activity class
[2] = system: Onchocerca gutturosa adult male worms; assay: Onchocerca gutturosa in vitro screening model: adult worm motility score and MTT/formazan viability; type: cell-based; settings: read-out: O. gutt Activity class
[3] = system: Dirofilaria immitis; assay: Heartworm screen Dirofilaria immitis (stage DiMF/DiL4 not specified in the tables); type: cell-based; settings: read-out: D. immitis Activity class
[4] = system: Adult and microfilariae B. pahangi; assay: In vitro parasite motility assay, B. pahangi adult worms and microfilariae; type: cell-based, Brugia pahangi

Structure (SMILES)	IC50 [1] [nM]	IC50 [2] [nM]	IC50 [3] [nM]	B. phange Activity class ([4]; activity against adult filaria (level E))	B. phange Activity class ([4]; activity against microfilaria (level D))
O=S(=O)(Nc1cccc2cccnc12)c1cn[nH]c1 [Compound 267, N-(quinolin-8-yl)-1H-pyrazol-4-sulfonamide]	500 to 5000	–	–	–	–
O=S(=O)(Nc1cccc2cccnc12)c1ncccc1F [Compound 269, 3-fluoro-N-(quinolin-8-yl)pyridine-2-sulfonamide]	–	< 200	500 to 5000	E (activity against adult filaria at compound concentrations below 1 μM (activity level E))	–
Cc1cc(NS(=O)(=O)c2nccn2C(C)C)c2ncccc2c1 [Compound 35]	–	200 to 500	200 to 500	–	–
N#Cc1cccc(S(=O)(=O)Nc2ccc(N3CCOCC3)c3cccnc23)c1 [Compound 80, 3-cyano-N-(5-morpho-linoquinolin-8-yl)ben-zenesulfon-amide]	–	< 200	500 to 5000	–	–
Cc1ncccc1S(=O)(=O)Nc1cccc2cccnc12 [Compound 155, 2-methyl-N-(quinolin-8-yl)pyridine-3-sulfonamide]	–	500 to 5000	500 to 5000	–	–
CCn1ccnc1S(=O)(=O)Nc1ccc(Cl)c2cccnc12 [Compound 110, N-(5-chloro-quinolin-8-yl)-1-ethyl-1H-imidazole-2-sulfonamide]	–	200 to 500	200 to 500	–	–
Nc1cccc(S(=O)(=O)Nc2cccc3cccnc23)n1 [Compound 264, 6-amino-N-(quinolin-8-yl)pyridin-2-sulfonamide]	–	500 to 5000	500 to 5000	–	–
Cn1cc(S(=O)(=O)Nc2cccc3cccnc23)cn1 [Compound 268, 1-methyl-N-(quinolin-8-yl)-1H-pyrazole-4-sulfonamide]	500 to 5000	–	–	–	D (activity against microfilaria at compound concentrations below 1 μM (activity level D))
CCn1ccnc1S(=O)(=O)Nc1ccc(F)c2cccnc12 [Compound 108, 1-ethyl-N-(5-fluoroquinolin-8-yl)-1H-imidazole-2-sulfonamide]	–	500 to 5000	< 200	–	–
